Measured values: ChEMBL document CHEMBL4004847, “New tacrine-derived AChE/BuChE inhibitors: Synthesis and biological evaluation of 5-amino-2-phenyl-4H-pyrano[2,3-b]quinoline-3-carboxylates” (Eur J Med Chem, 2017)
Values after ≈ are worked out from the molar mass of the structure shown. Active and inactive are the calls of the source. The calls are words filed in the database; no cut-off is given here.

What was measured:
PC-12 [1] = experiment: Neuroprotective activity against H2O2-induced cell death in rat PC12 cells assessed as increase in cell viability at 100 uM preincubated for 3 hrs followed by H2O2 addition measured after 24 hrs by MTT assay; assay type: functional, cell-based
Cholinesterase = Cholinesterase (Homo sapiens, UniProt P06276)
Description: Inhibition of human BuChE using butyrylthiocholine iodide as substrate preincubated for 5 mins followed by substrate addition measured for 1 min by Ellman's method

Acetylcholinesterase [2] = biological target: T1, Acetylcholinesterase (Electrophorus electricus, UniProt O42275)
Description: Inhibition of electric eel AChE using acetylthiocholine iodide as substrate preincubated for 5 mins followed by substrate addition measured for 1 min by Ellman's method

HepG2 = experiment: cells; conditions: Homo sapiens, HepG2, 24 h
Description: Cytotoxicity against human HepG2 cells assessed as reduction in cell viability after 24 hrs by MTT assay

Acetylcholinesterase [3] = biological target: T1, Acetylcholinesterase; experiment: Mixed-type inhibition of electric eel AChE preincubated for 5 mins followed by varying levels acetylthiocholine iodide substrate addition by Lineweaver-Burk plot analysis
PC-12 [4] = experiment: Neuroprotective activity against H2O2-induced cell death in rat PC12 cells assessed as increase in cell viability at 10 uM preincubated for 3 hrs followed by H2O2 addition measured after 24 hrs by MTT assay; assay type: functional, cell-based

T1 sequence (O42275 whole entry): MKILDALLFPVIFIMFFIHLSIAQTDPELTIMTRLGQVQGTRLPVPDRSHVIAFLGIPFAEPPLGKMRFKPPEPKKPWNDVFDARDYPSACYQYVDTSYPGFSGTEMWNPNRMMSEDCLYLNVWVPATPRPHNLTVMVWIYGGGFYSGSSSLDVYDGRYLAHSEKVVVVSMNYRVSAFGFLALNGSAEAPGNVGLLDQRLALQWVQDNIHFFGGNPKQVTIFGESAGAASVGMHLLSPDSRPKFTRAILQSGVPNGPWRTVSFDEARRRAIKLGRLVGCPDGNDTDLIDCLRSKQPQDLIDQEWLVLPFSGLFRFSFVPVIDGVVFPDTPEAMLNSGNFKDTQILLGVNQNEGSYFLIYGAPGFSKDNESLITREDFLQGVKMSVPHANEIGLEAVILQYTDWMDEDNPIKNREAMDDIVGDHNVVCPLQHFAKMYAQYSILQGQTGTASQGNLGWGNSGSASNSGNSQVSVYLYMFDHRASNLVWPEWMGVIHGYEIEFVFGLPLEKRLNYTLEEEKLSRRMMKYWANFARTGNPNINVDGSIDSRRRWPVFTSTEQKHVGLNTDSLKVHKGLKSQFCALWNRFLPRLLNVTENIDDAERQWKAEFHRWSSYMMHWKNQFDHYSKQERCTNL
Chain of Cholinesterase (P06276 whole entry): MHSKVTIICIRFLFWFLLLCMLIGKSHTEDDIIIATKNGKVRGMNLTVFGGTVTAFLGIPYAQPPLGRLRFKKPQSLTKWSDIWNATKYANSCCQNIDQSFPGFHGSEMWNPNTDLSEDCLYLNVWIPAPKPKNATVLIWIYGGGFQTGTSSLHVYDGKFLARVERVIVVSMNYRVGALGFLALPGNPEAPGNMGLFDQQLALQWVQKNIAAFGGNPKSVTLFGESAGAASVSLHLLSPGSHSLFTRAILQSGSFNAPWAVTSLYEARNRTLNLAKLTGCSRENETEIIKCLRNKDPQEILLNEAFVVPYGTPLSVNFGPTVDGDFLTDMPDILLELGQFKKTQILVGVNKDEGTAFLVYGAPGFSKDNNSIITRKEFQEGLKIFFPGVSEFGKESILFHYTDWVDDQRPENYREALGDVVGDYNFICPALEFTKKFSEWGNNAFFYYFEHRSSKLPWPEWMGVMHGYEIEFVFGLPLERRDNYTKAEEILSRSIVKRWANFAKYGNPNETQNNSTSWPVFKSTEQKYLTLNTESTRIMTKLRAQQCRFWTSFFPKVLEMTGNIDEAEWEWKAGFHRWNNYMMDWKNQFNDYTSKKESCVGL

In the case of `CCOC(=O)C1=C(c2ccccc2)Oc2nc3c(c(N)c2C1c1ccccc1Br)CCCC3` (stereo not drawn), the Activity (PC-12 [1]) is reported as “Active”, the IC50 (Cholinesterase) is reported as 2760 nM and the IC50 (Acetylcholinesterase [2]) is reported as 118 nM. The IC50 (HepG2) was over 100 µg/mL.

`CCOC(=O)C1=C(c2ccccc2)Oc2nc3c(c(N)c2C1c1ccc(Cl)cc1Cl)CCCC3` (stereo not drawn) gave an IC50 (Cholinesterase) of 22700 nM and an IC50 (Acetylcholinesterase [2]) of 1620 nM.

`CCOC(=O)C1=C(c2ccccc2)Oc2nc3c(c(N)c2C1c1cccc([N+](=O)[O-])c1)CCCC3` (stereo not drawn) was tested, and the IC50 (Cholinesterase) was 40900 nM, the IC50 (Acetylcholinesterase [2]) was 2730 nM and the IC50 (HepG2) was over 100 µg/mL.

`CCOC(=O)C1=C(c2ccccc2)Oc2nc3c(c(N)c2C1c1ccc(F)cc1)CCCC3` (stereo not drawn) showed an IC50 (Cholinesterase) of 6100 nM and an IC50 (Acetylcholinesterase [2]) of 404 nM.

`CCOC(=O)C1=C(c2ccccc2)Oc2nc3c(c(N)c2C1c1cccc(Br)c1)CCCC3` (stereo not drawn) was tested, and the Activity (PC-12 [1]) was “Active”, the IC50 (Cholinesterase) was 1350 nM and the IC50 (Acetylcholinesterase [2]) was 69 nM. The IC50 (HepG2) was 72.8 µg/mL (≈ 144 µM) and the Ki (Acetylcholinesterase [3]) was 48.5 nM.

For `CCOC(=O)C1=C(c2ccccc2)Oc2nc3c(c(N)c2C1c1cccc(Cl)c1)CCCC3` (stereo not drawn), the Activity (PC-12 [1]) was “Active”, the IC50 (Cholinesterase) was 3100 nM and the IC50 (Acetylcholinesterase [2]) was 228 nM. It also gave an IC50 (HepG2) of 50.4 µg/mL (≈ 109 µM).

With `CCOC(=O)C1=C(c2ccccc2)Oc2nc3c(c(N)c2C1c1ccc(Cl)cc1)CCCC3` (stereo not drawn) the IC50 (Cholinesterase) was 17600 nM and the IC50 (Acetylcholinesterase [2]) was 1100 nM.

Compound `CCOC(=O)C1=C(c2ccccc2)Oc2nc3c(c(N)c2C1c1cccc(OC)c1)CCCC3` (stereo not drawn) has an IC50 (Cholinesterase) of 7140 nM and an IC50 (Acetylcholinesterase [2]) of 510 nM.

`CCOC(=O)C1=C(c2ccccc2)Oc2nc3c(c(N)c2C1c1ccc(OC)cc1)CCCC3` (stereo not drawn) gave an IC50 (Cholinesterase) of 5760 nM and an IC50 (Acetylcholinesterase [2]) of 480 nM.

For `CCOC(=O)C1=C(c2ccccc2)Oc2nc3c(c(N)c2C1c1ccccc1Cl)CCCC3` (stereo not drawn), the Activity (PC-12 [1]) was “Active”, the Activity (PC-12 [4]) was “Active” and the IC50 (Cholinesterase) was 2140 nM. For the same compound, the IC50 (Acetylcholinesterase [2]) was 153 nM and the IC50 (HepG2) was over 100 µg/mL.

Work on `CCOC(=O)C1=C(c2ccccc2)Oc2nc3c(c(N)c2C1c1ccc([N+](=O)[O-])cc1)CCCC3` (stereo not drawn) yielded an IC50 (Cholinesterase) of 9910 nM and an IC50 (Acetylcholinesterase [2]) of 583 nM.

In the case of `CCOC(=O)C1=C(c2ccccc2)Oc2nc3c(c(N)c2C1c1cccc(F)c1)CCCC3` (stereo not drawn), the IC50 (Cholinesterase) is reported as 11700 nM and the IC50 (Acetylcholinesterase [2]) is reported as 778 nM.

Compound `CCOC(=O)C1=C(c2ccccc2)Oc2nc3c(c(N)c2C1c1ccccc1)CCCC3` (stereo not drawn) has an IC50 (Cholinesterase) of 5490 nM and an IC50 (Acetylcholinesterase [2]) of 423 nM.

`CCOC(=O)C1=C(c2ccccc2)Oc2nc3c(c(N)c2C1c1ccc(Br)cc1)CCCC3` (stereo not drawn) was tested, and the IC50 (Cholinesterase) was 74200 nM and the IC50 (Acetylcholinesterase [2]) was 6220 nM.

`CCOC(=O)C1=C(c2ccccc2)Oc2nc3c(c(N)c2C1c1ccccc1F)CCCC3` (stereo not drawn) gave an IC50 (Cholinesterase) of 3630 nM and an IC50 (Acetylcholinesterase [2]) of 370 nM.

`CCOC(=O)C1=C(c2ccccc2)Oc2nc3c(c(N)c2C1c1ccc(C)cc1)CCCC3` (stereo not drawn) was tested, and the IC50 (Cholinesterase) was 54100 nM and the IC50 (Acetylcholinesterase [2]) was 4160 nM.
